These results are taken from ChEMBL document CHEMBL1201862, “PubChem BioAssay data set” (2004).

Calls of active or inactive are those of the source.

The target of assay [1] is T1, DNA dC->dU-editing enzyme APOBEC-3G (Homo sapiens, UniProt Q9HC16). The assay is classed as functional.
Assay [2] concerns the target T1, DNA dC->dU-editing enzyme APOBEC-3G. Briefly: SAR analysis of small molecule inhibitors of APOBEC3G DNA Deaminase via a fluorescence-based single-stranded DNA deaminase assay - Set 2. The format is functional. The conditions noted are these: read-out: IC50_Mean.
Assay [3] deals with T2, DNA dC->dU-editing enzyme APOBEC-3A (Homo sapiens, UniProt P31941). Briefly: Dose Response confirmation of small molecule APOBEC3A DNA Deaminase Inhibitors via a fluorescence-based single-stranded DNA deaminase assay. [Related pubchem assays (depositor defined):AID493011, AID493024]. The assay is classed as functional.
T2 sequence (P31941 whole entry): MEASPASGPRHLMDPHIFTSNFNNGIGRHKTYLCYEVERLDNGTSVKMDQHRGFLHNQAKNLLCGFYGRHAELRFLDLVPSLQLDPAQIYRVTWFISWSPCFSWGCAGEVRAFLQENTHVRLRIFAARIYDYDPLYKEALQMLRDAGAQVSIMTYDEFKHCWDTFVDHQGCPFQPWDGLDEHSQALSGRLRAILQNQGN
Assay [4] deals with T2, DNA dC->dU-editing enzyme APOBEC-3A. The assay can be described thus: SAR analysis of small molecule inhibitors of APOBEC3A DNA Deaminase via a fluorescence-based single-stranded DNA deaminase assay - Set 2. The assay is classed as functional. Conditions: read-out: IC50_Mean.
Assay [5] has the same target. The assay can be described thus: SAR analysis of small molecule inhibitors of APOBEC3A DNA Deaminase via a fluorescence-based single-stranded DNA deaminase assay. The assay is classed as functional. The conditions noted are these: read-out: IC50_Mean.
In assay [6] the target is T1, DNA dC->dU-editing enzyme APOBEC-3G. Briefly: inhibition of APOBEC3G ssDNA deamination – biochemical, fluorescence, single-stranded DNA substrate, SAR follow-up (AID 602136). Conditions: read-out: IC50_Mean. The assay is classed as functional.
A further assay concerns H9c2. The assay can be described thus: cells. The format is functional, cell-based. Conditions: Rattus norvegicus, H9c2, Myocardium.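 Note: confirmatory concentration-response retest of ultra-high-throughput screening hits for modulation of myocardial damage; cell death induced by hydrogen peroxide oxidative stress; compound pretreatment for 60 min then peroxide exposure for 2 h; potency is for protecting the cells against peroxide damage rather than for killing them.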
A short description of assay [7]: bead-based luminescence quenchers, dual-tagged ARNT – biochemical, AlphaScreen, cherry-pick, artefact control for ARNT-TACC3 interaction inhibitor project, dose response (AID 651705).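 Note: AlphaScreen bead proximity signal that flags compounds interfering with the detection technology; potency reflects signal decrease which marks the compound as an assay artifact.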 The assay is classed as functional. (In general: Alpha assays give light when donor and acceptor beads are brought close together.)
Assay [8] can be described thus: inhibition of ARNT PAS-B/TACC3 complex formation – biochemical, AlphaScreen, cherry-picked samples, confirmation (AID 651703).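 Note: His-tagged ARNT PAS-B domain paired with GST-TACC3 E629A dimer coactivator fragment; potency of inhibitors that break up the complex and lower AlphaScreen signal.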 The assay is classed as functional, Homo sapiens.
Another assay addresses Melanocortin receptor 4 (Homo sapiens, UniProt P32245). The format is functional, cell-based.
Assay [9] addresses Cell division cycle 7-related protein kinase (Homo sapiens, UniProt O00311). The format is functional.
Assay [10] addresses Dual specificity protein kinase CLK4 (Homo sapiens, UniProt Q9HAZ1). The format is functional.
The target of assay [11] is Homeodomain-interacting protein kinase 2 (Homo sapiens, UniProt Q9H2X6). The assay is classed as functional.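 Note: measured within a kinome-wide kinase profiling panel, HIPK2 being one panel member.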
Assay [12] concerns the target Serine/threonine-protein kinase pim-1 (Homo sapiens, UniProt P11309). The assay is classed as functional.
The target of assay [13] is T3, Interleukin-1 receptor-associated kinase 4 (Homo sapiens, UniProt Q9NWZ3).
T3 sequence (Q9NWZ3 whole entry): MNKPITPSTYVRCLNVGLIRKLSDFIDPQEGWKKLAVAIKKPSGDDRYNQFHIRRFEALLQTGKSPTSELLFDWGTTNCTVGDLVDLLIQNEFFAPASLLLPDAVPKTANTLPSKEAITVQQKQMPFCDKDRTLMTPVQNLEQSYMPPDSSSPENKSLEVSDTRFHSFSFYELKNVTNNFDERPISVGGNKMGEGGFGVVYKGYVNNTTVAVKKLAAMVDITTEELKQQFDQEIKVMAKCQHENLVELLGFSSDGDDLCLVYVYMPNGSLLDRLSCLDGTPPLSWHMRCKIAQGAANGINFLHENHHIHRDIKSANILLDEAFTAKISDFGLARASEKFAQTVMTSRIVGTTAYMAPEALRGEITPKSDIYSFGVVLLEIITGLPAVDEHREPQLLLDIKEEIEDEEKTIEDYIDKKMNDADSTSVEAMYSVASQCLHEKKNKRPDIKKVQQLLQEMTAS
The assay is classed as functional.

The target in assay [14] is cAMP-dependent protein kinase catalytic subunit alpha (Homo sapiens, UniProt P17612). The format is functional.
Assay [15] has as its target Mitogen-activated protein kinase kinase kinase kinase 4 (Homo sapiens, UniProt O95819). The format is functional.
Assay [16] has as its target Glycogen synthase kinase-3 beta (Homo sapiens, UniProt P49841). The assay is classed as functional.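 Note: value comes from a broad kinome profiling panel, with GSK3B as the panel member.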
The target of assay [17] is Vascular endothelial growth factor receptor 1 (Homo sapiens, UniProt P17948). The assay is classed as functional.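 Note: measured within a kinome-wide profiling panel, FLT1 as the panel member.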
Assay [18] concerns the target Tyrosine-protein kinase Lck (Homo sapiens, UniProt P06239). The format is functional.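 Note: lck was assayed as one member of a kinase panel.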
Assay [19] concerns the target Tyrosine-protein kinase Lyn (Homo sapiens, UniProt P07948). The assay is classed as functional.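 Note: lyn as one member of a kinase panel.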
The target of assay [20] is Vascular endothelial growth factor receptor 2 (Homo sapiens, UniProt P35968). The assay is classed as functional.
For assay [21], the target named is Mast/stem cell growth factor receptor Kit (Homo sapiens, UniProt P10721). The format is functional.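 Note: KIT entry within a kinase panel assay.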
The target of assay [22] is Vascular endothelial growth factor receptor 3 (Homo sapiens, UniProt P35916). The format is functional.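 Note: value from a kinome-wide profiling panel, with FLT4 as the panel member.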
Sequence of Vascular endothelial growth factor receptor 3 (P35916 whole entry): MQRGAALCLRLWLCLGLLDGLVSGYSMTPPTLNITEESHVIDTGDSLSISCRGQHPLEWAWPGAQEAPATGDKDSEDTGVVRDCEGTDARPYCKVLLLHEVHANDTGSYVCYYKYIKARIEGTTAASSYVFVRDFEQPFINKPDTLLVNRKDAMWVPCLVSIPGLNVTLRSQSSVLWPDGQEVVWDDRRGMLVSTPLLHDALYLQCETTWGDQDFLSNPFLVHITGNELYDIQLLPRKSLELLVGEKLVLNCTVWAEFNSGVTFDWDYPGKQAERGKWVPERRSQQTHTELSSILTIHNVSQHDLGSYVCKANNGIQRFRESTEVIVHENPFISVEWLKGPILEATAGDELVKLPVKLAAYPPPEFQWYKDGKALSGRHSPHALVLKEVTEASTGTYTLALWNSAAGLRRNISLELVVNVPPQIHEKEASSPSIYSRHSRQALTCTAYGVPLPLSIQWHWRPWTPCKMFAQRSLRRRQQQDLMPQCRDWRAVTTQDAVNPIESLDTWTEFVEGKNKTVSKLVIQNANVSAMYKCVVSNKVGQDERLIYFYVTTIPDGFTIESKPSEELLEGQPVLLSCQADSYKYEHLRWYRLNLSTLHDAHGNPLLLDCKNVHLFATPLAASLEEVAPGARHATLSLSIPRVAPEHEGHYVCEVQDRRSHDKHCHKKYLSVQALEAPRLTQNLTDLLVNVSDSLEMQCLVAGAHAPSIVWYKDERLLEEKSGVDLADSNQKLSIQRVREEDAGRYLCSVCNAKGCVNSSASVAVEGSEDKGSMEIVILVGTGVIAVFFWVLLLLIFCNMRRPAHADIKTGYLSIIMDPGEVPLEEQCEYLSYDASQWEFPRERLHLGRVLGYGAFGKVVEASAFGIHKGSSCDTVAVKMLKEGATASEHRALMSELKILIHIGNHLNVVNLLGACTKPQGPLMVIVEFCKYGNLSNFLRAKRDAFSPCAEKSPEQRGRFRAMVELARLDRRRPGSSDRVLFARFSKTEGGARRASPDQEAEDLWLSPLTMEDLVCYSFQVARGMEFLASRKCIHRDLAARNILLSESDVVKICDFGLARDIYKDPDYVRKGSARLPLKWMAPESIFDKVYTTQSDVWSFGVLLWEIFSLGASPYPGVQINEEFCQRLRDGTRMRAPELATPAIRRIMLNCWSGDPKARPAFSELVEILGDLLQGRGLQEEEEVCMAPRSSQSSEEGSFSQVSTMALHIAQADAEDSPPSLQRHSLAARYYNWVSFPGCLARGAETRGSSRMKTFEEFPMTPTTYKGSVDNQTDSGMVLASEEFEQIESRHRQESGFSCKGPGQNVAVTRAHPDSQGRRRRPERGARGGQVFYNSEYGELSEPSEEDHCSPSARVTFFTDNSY
Assay [23] concerns the target Tyrosine-protein kinase ABL1 (Homo sapiens, UniProt P00519). The assay is classed as functional.
Assay [24] concerns the target Macrophage colony-stimulating factor 1 receptor (Homo sapiens, UniProt P07333). The assay is classed as functional.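 Note: value comes from the Navigating the Kinome screening panel, CSF1R member.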
Assay [25] has as its target Tyrosine-protein kinase Blk (Homo sapiens, UniProt P51451). The format is functional.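 Note: obtained as one member of a kinome-wide kinase assay panel.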
The target of assay [26] is High affinity nerve growth factor receptor (Homo sapiens, UniProt P04629). The format is functional.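 Note: NTRK1 tested as one member of a kinome-wide profiling panel.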
Sequence of High affinity nerve growth factor receptor (P04629 whole entry): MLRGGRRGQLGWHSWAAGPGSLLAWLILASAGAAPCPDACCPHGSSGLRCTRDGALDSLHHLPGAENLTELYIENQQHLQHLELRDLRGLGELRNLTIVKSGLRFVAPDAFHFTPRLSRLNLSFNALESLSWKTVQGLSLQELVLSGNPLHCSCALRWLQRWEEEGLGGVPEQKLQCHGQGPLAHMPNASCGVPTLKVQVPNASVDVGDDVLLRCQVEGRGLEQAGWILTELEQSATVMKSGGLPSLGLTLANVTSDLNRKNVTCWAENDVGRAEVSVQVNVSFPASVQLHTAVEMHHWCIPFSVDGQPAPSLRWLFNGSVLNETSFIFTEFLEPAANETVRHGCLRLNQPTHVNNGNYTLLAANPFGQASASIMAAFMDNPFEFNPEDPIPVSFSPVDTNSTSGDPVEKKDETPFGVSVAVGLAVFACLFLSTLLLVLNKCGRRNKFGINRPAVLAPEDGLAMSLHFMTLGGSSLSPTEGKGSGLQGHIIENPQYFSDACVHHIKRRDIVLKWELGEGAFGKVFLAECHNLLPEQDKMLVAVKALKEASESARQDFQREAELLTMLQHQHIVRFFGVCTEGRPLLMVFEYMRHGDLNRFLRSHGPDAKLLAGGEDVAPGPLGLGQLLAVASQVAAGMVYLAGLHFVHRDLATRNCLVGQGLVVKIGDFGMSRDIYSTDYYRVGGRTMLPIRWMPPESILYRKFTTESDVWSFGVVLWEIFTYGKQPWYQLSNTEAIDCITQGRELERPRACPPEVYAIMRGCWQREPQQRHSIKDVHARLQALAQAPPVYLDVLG
For assay [27], the target named is Tyrosine-protein kinase Fyn (Homo sapiens, UniProt P06241). The format is functional.
The target of assay [28] is T4, Receptor-type tyrosine-protein kinase FLT3 (Homo sapiens, UniProt P36888).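 Note: FLT3 was tested as one member of a kinome-wide kinase panel.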
T4 sequence (P36888 whole entry): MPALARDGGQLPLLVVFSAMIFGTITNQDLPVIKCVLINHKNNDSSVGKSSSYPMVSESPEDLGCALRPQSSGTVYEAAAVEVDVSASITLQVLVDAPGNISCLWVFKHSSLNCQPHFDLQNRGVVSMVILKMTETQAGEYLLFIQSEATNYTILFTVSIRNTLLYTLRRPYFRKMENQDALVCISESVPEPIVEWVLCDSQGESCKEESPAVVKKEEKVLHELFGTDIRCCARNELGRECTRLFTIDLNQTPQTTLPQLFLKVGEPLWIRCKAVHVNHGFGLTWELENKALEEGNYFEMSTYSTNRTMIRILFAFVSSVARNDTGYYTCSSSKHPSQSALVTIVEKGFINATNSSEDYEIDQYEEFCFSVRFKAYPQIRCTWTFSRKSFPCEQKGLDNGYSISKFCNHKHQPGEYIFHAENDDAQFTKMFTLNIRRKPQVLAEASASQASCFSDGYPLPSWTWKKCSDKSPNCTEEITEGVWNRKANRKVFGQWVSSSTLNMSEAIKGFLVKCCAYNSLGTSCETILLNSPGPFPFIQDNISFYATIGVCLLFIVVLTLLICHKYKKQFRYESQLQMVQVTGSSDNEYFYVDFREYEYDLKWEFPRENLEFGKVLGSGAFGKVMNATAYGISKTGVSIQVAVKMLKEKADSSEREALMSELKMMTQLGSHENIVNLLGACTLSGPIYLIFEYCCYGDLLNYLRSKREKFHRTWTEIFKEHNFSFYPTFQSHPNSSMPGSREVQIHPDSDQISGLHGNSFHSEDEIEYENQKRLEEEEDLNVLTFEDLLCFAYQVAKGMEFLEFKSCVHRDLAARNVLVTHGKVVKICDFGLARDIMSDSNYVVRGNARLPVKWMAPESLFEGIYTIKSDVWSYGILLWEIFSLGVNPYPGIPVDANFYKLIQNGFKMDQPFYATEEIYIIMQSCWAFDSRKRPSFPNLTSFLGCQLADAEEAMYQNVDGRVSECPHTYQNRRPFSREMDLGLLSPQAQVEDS
The assay is classed as functional.

Assay [29] concerns the target Proto-oncogene tyrosine-protein kinase Src (Homo sapiens, UniProt P12931). The assay is classed as functional.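 Note: SRC entry within a kinome-wide kinase profiling panel.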
In assay [30] the target is T5, ATP-dependent translocase ABCB1 (Homo sapiens, UniProt P08183). The assay can be described thus: inhibition of BCRP-mediated JC-1 efflux – Ig-MXP3 cells, flow cytometry, set 2, dose response (AID 504566).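 Note: flow cytometry median green fluorescence of retained JC-1 dye; potency of efflux pump inhibition measured as rising substrate retention.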 The format is functional. The conditions noted are these: read-out: EC50_MICROM_.
The target in assay [31] is T5, ATP-dependent translocase ABCB1. The assay can be described thus: P-gp JC-1 efflux blockade concentration-response – Jurkat-DNR cells, flow cytometry, set 2, dose response (AID 504569).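 Note: potency of pump inhibitors that raise cellular JC-1 green fluorescence up to the nicardipine level.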 The assay is classed as functional. Conditions: read-out: EC50_MICROM_. Background: Flow cytometry measures light scatter and fluorescence of single cells or particles in a stream.

The target in assay [32] is Aryl hydrocarbon receptor (Homo sapiens, UniProt P35869). The conditions noted are these: Potency.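 Note: confirmatory quantitative high-throughput screen measuring activation of the AhR signaling pathway.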
The target of assay [33] is Mitochondrial peptide methionine sulfoxide reductase (Bos taurus, UniProt P54149). The assay is classed as functional.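 Note: absorbance read-out, biochemical high-throughput dose-response screen for MsrA inhibitors, confirmatory; recombinant bovine MsrA coupled to E. coli TrxB with NADPH and selenocystamine; potency is for inhibitors of MsrA activity on DMSO substrate.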

T1 sequence (Q9HC16 whole entry): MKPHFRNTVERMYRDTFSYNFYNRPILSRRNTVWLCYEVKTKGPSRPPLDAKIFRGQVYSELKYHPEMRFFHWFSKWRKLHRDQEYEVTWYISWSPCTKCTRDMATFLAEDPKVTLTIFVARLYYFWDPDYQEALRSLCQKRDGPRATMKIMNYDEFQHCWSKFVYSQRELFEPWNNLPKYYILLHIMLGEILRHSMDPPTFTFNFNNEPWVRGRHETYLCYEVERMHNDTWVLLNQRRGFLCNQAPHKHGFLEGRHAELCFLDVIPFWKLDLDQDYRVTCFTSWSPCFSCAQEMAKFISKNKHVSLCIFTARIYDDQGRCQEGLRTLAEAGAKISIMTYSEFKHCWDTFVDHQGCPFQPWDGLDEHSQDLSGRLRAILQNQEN
Sequence of Serine/threonine-protein kinase pim-1 (P11309 whole entry): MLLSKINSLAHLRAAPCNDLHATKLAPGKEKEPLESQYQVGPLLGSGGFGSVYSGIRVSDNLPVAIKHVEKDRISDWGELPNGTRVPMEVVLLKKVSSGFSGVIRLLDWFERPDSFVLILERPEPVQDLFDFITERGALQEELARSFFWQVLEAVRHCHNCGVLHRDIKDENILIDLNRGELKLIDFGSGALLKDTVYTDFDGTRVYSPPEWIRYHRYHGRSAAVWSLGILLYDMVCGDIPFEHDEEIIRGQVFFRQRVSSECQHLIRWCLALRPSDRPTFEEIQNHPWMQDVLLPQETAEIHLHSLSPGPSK
Sequence of Mitogen-activated protein kinase kinase kinase kinase 4 (O95819 whole entry): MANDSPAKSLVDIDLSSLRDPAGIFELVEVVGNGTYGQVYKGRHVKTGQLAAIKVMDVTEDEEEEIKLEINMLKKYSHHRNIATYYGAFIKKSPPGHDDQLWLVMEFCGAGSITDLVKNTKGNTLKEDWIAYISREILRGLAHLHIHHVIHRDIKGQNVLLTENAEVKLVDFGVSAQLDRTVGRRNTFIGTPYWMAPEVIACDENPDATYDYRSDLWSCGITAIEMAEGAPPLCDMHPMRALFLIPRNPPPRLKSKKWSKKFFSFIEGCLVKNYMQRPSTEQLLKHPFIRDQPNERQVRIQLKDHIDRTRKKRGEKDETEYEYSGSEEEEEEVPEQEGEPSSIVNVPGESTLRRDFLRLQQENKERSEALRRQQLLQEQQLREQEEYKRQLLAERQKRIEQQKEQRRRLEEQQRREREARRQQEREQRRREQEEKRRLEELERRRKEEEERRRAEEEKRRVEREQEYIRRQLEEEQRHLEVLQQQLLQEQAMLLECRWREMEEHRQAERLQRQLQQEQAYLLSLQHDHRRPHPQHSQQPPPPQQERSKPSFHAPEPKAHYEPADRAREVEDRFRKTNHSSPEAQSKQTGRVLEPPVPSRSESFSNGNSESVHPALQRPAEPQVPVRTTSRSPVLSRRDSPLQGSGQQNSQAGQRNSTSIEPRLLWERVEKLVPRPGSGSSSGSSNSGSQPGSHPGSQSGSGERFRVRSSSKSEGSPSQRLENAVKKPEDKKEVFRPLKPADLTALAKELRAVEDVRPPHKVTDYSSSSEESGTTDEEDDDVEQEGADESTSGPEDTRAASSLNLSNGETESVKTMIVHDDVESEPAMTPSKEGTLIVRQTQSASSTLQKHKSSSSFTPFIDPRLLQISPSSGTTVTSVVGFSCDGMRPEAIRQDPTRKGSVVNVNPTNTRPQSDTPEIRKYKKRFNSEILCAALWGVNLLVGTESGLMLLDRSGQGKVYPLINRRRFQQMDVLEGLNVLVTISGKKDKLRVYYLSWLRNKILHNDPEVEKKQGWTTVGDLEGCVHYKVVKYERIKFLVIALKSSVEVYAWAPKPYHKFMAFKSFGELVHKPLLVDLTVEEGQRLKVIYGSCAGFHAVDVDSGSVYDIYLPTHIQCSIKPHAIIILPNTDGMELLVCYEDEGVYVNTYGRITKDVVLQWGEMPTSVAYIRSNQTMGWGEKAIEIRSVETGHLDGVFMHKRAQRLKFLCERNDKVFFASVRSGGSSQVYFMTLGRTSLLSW
Sequence of Cell division cycle 7-related protein kinase (O00311 whole entry): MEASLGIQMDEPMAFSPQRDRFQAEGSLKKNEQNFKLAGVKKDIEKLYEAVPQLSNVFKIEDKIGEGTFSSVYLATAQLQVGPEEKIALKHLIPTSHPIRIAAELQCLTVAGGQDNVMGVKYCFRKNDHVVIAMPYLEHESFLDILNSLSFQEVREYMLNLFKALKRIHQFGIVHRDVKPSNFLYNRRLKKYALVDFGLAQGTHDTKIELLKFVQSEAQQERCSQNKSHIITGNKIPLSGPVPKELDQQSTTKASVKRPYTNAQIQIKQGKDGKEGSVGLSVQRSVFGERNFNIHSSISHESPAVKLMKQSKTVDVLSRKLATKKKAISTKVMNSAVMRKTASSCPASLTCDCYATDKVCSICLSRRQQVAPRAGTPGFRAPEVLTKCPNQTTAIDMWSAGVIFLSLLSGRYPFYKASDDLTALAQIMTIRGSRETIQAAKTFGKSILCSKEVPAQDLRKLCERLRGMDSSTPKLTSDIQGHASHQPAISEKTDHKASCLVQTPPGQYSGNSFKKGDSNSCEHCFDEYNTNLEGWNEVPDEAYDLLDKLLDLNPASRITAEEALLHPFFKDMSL

Consider `Cc1ccc[n+](CC(=O)Nc2cc(C(F)(F)F)ccc2N2CCOCC2)c1`, for which the IC50 in assay [1] is 7420 nM (active); in assay [2], 601 nM (active); in assay [3], 2880 nM (active); in assay [4], 26600 nM (inactive); in assay [5] it was 20300 nM (inactive); in assay [6] it was 9170 nM (active).

On to `Brc1ccc(-c2nn3c(-c4ccccn4)nnc3s2)o1`, for which the IC50 with H9c2 was 14800 nM (active). Also, in [7], the AC50 was 104000 nM (active).

As for `N=C(NNS(=O)(=O)c1cc(C(F)(F)F)cc(C(F)(F)F)c1)c1ccccn1`, the half-maximal activity concentration (AC50) in [8] is 104000 nM (active).

As for `Cc1c(-c2ccnc3cc(C(=O)O)nn23)cnn1C`, the IC50 in assay [2] is > 99000 nM (inactive); in [4], 88900 nM (inactive).

With `COc1ccccc1-c1cc(NC=O)c2ncc(-c3cccc(C(F)(F)F)c3)n2c1`, the EC50 at Melanocortin receptor 4 was > 89200 nM (inactive).

For the compound `O=C(NCc1ccccc1)c1c[nH]n2c(=O)cc(-c3ccncc3)nc12`, the inhibition constant Ki was 5.01 nM (active) in assay [9]; 5.01 nM (active) in assay [10]; 20 nM (active) in assay [11]; 25.1 nM (active) in assay [12]; 6310 nM (active) in assay [13]; 3980 nM (active) in assay [14]. Further, the Ki in [15] was 100 nM (active); in [16], 2.51 nM (active).

Regarding `OCCNc1cc(-c2c[nH]c3ncccc23)cc(Cl)n1`, the Ki in assay [9] is 2.51 nM (active); in assay [11] it was 79.4 nM (active); in [12] it was 1580 nM (active); in [13] it was 1260 nM (active); in [14] it was 158 nM (active); in assay [15], 3.98 nM (active). Further, in assay [16], the inhibition constant (Ki) was 200 nM (active).

In the case of `Nc1n[nH]c2cccc(-c3ccc(NC(=O)Nc4cccc(Cl)c4)c(F)c3)c12`, the inhibition constant Ki is 0.631 nM (active) in [17]; 100 nM (active) in assay [18]; 158 nM (active) in assay [19]; 3.16 nM (active) in assay [20]; 0.794 nM (active) in assay [21]; 3.16 nM (active) in assay [22]. Besides, the Ki in assay [23] was 501 nM (active); in assay [24], 2 nM (active); in assay [25] it was 200 nM (active); in assay [26], 1260 nM (active); in assay [27] it was 398 nM (active); in [28] it was 1 nM (active). Besides, in [29], the Ki was 501 nM (active). The pKi in [17] was 9.2; in assay [18], 7; in [19] it was 6.8; in assay [20] it was 8.5; in assay [21] it was 9.1; in assay [22] it was 8.5. Moreover, the pKi came out at 6.3 in [23]; 8.7 in assay [24]; 6.7 in assay [25]; 5.9 in assay [26]; 6.4 in assay [27]; 9 in [28].

In the case of `COc1ccc(-c2cc3nc(-c4ccccc4)cc(N4CCN(C(=O)c5ccsc5)CC4)n3n2)cc1`, the values for the EC50 in [30] and in assay [31] were 770 nM (active) and 1020 nM (active), respectively.

As to `O=C(O)c1cc2ccccc2cc1O`, the half-maximal activity concentration (AC50) in [32] is 50100 nM (inconclusive).

Consider `CCOC(=O)CC(C)(C)/C(C)=N/Nc1ccc([N+](=O)[O-])cc1[N+](=O)[O-]`, for which, in [33], the IC50 was 155000 nM (inactive).

A word on the AC50: it is the concentration giving half of the maximal activity seen. As usually defined, the Ki is a measure of affinity in units of concentration, obtained from inhibition or displacement. For orientation: pKi means −log10 of the Ki, conventionally taken in molar units. High values mean a low Ki, low ones a high Ki.
